Assay results as given in patent US9550742B2, “11-OXO-10,11-dihydrodibenzo[B,F][1,4]thiazepine S-oxide derivatives and their use as dopamine D2 receptor antagonists” (The United States of America, as Represented by the …, priority 2013, dated 2017).

How the values were obtained:
[1] = target: 5-HT3 (Homo sapiens, UniProt P46098); test: Affinity profile panel: 5-HT3; conditions: inhibition of binding
[2] = target: 5-HT7 (Homo sapiens, UniProt P34969); test: Affinity profile panel: 5-HT7; conditions: inhibition of binding
[3] = target: 5-HT1A (Homo sapiens, UniProt P08908); test: Affinity profile, panel of 46 GPCRs and related proteins: 5-HT1A; conditions: inhibition of binding
[4] = target: D3 dopamine receptor (DAR) (Homo sapiens, UniProt P35462); test: D3 beta-arrestin functional assay (PathHunter, CHO); assay type: cell-based; conditions: dose response curve; read-out: D3 β-arrestin assay AC50
Source text: A CHO cell line was engineered to overexpress D3 dopamine receptor (DAR) and fused with a small 42-amino acid fragment of β-gal called ProLink™. In addition, these cells stably express a fusion protein of β-arrestin and a larger N-terminal deletion mutant of β-galactosidase (“enzyme acceptor”). When DAR is activated by dopamine, it stimulates binding of β-arrestin to ProLink-tagged DARs, and the two complementary parts of β-galactosidase form a functional enzyme. When substrate (PathHunter® Detection reagent) is added, βgalactosidase hydrolyzes it and generates a chemiluminescent signal.
For the 1,536-well assay, D3 PathHunter® β-arrestin cells were seeded at 2,100 cells/well in 3 μL/well media (DiscoveRx Plating Reagent 2) with MultiDrop Combi dispenser (Thermo Scientific, Logan, Utah) onto white tissue culture treated 1,536-well Aurora plates (Brooks Automation, Chelmsford, Mass.) and allowed to attach overnight at 37° C., 5% CO2. Next, 23 nL/well of compound solutions in DMSO were added with a pintool transfer (Kalypsis, San Diego, Calif.). The cells were stimulated by compounds for 90 minutes at 37° C., 5% CO2, after which 1.5 μL/well of DiscoveRx detection reagent was added with BioRAPTR FRD dispenser. […] The plates were incubated at ambient temperature for 1 h, and the luminescent signal was read on ViewLux plate reader (PerkinElmer, Waltham, Mass.).

[5] = target: D2L human dopamine receptors (Homo sapiens, UniProt P14416); test: D2 binding assay ([^3H]methylspiperone, HEK membranes)
Procedure: Compounds were tested for differences in affinity between three dopamine receptor subtypes using radio-labeled ligand binding assays. The first assay determined the Ki value of the compounds for the D2 DAR subtype using stable HEK cell lines expressing the D2L human dopamine receptors (Codex Biosciences, Gaithersburg, Md.). Cells were cultured in Dulbecco's modified Eagle's Medium containing 10% FBS, 1,000 units/mL Penicillin, 1,000 mg/mL Streptomycin, 100 mM Sodium Pyruvate, 1 μg/mL Gentamicin, and […] G418. All cells were maintained at 37° C. in 5% CO2 and 90% humidity. For radioligand binding assays, cells were removed mechanically using calcium and magnesium-free Earle's Balanced Salt Solution (EBSS(−)). Intact cells were collected by centrifugation and then lysed with 5 mM Tris-HCl and 5 mM MgCl2 at pH 7.4 in a glass homogenizer. Homogenates were centrifuged at 20,000×g for 30 minutes. The membranes were re-suspended in EBSS (pH 7.4) and protein concentration was determined using a Bradford assay according to the manufacturer's recommendations (Bio-Rad). Membranes were diluted to 24 mg/mL. […] Membrane preparations were incubated for 90 min at room temperature with various concentrations of radioligand in a reaction volume of 250 μL EBSS containing 200 mM sodium metabisulfite. Non-specific binding was determined in the presence of 4 μM (+)-butaclamol. Bound ligand was separated from unbound by filtration through GF/C filters using a PerkinElmer cell harvester with ice cold EBSS (4 washes) and quantified on a Top-count (PerkinElmer) after addition of scintillation solution. […] In order to determine the affinity of a given compound for a receptor type, competition-binding assays were performed. […] Reactions were incubated, terminated, and quantified as indicated above.

[6] = test system: BZP Rat Brain Site; test: Affinity profile panel: BZP Rat Brain Site; conditions: inhibition of binding
[7] = test system: GABAA; test: Affinity profile panel: GABAA; conditions: inhibition of binding
[8] = target: Alpha2B (Homo sapiens, UniProt P18089); test: Affinity profile panel: Alpha2B; conditions: inhibition of binding
[9] = target: Alpha1D (Homo sapiens, UniProt P25100); test: Affinity profile panel: Alpha1D; conditions: inhibition of binding
[10] = target: D1 (Homo sapiens, UniProt P21728); test: Affinity profile panel: D1; conditions: inhibition of binding
[11] = target: T1, D2 receptor (Rattus norvegicus, UniProt P61169); test: Sumanirole-induced hypothermia; assay type: in vivo; conditions: rats, subcutaneously
T1 construct: from tissue; host or cells: live rats (whole animal)
Source text: These experiments test the ability of a compound of Formula I, ML321, to affect physiological or behavioral responses in rats that are mediated by D2 or D3 receptors. Sumanirole, an agonist of the D2 receptor, produces hypothermia in rats when administered subcutaneously. This response is known to be mediated by the D2 receptor and not the D3 receptor (Collins et al., Psychopharmacology (Berl). 2007, 193(2):159-70).
The sumanirole-induced hypothermia and pramipexole-induced yawning experiments show ML321 can act selectively to block the D2 receptor without blocking the D3 receptor when administered to living animals. Thus, the D2 selectivity identified using cellular assays can also be seen in living animals.

Sequence of D2L human dopamine receptors (P14416 whole entry): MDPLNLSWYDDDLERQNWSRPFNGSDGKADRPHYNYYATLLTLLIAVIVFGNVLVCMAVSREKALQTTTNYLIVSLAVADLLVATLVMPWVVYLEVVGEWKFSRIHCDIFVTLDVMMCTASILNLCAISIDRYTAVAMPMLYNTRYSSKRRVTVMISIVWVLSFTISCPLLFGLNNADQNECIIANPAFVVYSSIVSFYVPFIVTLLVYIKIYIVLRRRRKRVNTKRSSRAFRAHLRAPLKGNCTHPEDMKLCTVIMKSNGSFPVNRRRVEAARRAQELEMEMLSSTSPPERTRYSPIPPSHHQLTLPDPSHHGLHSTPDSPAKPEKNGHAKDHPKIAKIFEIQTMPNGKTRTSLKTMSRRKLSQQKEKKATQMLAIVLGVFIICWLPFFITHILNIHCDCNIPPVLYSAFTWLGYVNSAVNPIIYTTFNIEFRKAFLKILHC
T1 sequence (P61169 whole entry): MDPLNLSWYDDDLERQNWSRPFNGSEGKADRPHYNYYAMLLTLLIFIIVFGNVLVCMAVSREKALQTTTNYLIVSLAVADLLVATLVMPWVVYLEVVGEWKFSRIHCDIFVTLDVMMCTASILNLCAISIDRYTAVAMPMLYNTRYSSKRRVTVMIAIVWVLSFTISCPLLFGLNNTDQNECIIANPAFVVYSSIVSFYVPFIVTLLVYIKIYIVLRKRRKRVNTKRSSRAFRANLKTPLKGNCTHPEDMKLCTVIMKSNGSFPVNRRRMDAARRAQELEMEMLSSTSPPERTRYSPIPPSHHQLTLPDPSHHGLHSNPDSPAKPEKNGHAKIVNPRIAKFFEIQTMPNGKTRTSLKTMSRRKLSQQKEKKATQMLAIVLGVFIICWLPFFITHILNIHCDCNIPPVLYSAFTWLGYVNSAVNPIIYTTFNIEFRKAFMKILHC
Sequence of 5-HT3 (P46098 24-478, species assumed): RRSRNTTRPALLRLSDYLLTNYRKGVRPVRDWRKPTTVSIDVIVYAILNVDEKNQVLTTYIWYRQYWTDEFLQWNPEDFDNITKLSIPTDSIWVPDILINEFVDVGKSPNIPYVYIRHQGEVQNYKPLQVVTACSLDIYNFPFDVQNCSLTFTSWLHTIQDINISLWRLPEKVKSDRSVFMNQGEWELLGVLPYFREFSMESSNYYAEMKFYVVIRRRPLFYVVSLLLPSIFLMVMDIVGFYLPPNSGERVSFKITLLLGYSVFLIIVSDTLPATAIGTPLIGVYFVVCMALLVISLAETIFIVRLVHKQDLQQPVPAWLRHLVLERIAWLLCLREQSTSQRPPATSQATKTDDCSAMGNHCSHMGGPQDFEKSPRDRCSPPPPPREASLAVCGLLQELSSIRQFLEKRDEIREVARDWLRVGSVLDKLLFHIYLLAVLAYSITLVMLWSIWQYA
Sequence of 5-HT1A (P08908 whole entry, species assumed): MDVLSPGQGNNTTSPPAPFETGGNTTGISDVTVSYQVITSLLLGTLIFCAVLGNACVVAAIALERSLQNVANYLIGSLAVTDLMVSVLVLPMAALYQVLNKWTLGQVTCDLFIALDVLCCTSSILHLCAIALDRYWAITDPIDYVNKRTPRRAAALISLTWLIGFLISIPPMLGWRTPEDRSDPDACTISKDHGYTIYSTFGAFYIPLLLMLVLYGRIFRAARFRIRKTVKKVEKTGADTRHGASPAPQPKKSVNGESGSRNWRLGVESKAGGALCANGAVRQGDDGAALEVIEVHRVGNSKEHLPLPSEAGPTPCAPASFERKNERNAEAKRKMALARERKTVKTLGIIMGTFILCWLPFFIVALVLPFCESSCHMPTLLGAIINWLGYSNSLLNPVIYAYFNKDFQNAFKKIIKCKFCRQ
Sequence of Alpha1D (P25100 whole entry): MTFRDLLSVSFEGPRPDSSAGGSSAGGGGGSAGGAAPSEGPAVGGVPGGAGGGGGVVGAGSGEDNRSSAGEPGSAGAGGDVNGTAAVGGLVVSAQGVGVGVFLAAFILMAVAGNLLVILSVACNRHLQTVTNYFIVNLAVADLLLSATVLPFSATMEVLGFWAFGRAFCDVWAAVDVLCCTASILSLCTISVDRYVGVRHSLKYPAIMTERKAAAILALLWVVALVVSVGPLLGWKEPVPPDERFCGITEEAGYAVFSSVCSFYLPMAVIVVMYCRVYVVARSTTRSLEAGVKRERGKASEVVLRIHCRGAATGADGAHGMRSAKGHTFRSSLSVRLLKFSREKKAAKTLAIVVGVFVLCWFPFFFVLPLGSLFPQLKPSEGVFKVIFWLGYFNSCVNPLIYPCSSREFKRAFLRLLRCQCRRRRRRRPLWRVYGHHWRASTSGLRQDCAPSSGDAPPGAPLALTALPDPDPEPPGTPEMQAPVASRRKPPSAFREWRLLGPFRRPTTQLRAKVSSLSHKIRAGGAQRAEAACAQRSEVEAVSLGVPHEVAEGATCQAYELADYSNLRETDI
Sequence of 5-HT7 (P34969 whole entry, species assumed): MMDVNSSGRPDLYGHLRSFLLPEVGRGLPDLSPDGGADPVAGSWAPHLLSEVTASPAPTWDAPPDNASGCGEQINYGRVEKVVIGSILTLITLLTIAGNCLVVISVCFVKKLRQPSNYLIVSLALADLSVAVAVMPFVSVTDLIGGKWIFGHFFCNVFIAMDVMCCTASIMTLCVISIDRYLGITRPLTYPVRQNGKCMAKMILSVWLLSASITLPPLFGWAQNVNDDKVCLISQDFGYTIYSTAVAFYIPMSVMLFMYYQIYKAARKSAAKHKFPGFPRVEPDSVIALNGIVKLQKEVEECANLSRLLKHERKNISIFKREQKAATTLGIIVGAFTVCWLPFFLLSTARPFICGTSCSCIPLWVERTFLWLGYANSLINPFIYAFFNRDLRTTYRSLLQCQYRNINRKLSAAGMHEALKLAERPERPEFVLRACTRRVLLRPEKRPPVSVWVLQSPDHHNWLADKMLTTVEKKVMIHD
Sequence of D3 dopamine receptor (DAR) (P35462 whole entry): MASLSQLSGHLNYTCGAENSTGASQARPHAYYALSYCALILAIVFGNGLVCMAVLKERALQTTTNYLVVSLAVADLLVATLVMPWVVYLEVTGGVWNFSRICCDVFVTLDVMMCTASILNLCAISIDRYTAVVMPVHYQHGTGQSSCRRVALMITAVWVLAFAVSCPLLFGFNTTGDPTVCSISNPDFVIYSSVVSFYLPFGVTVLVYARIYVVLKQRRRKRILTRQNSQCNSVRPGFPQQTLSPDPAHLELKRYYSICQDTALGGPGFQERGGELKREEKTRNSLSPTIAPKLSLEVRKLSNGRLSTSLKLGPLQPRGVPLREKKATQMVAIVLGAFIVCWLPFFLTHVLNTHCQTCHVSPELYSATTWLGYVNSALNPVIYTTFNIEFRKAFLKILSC
Sequence of Alpha2B (P18089 whole entry): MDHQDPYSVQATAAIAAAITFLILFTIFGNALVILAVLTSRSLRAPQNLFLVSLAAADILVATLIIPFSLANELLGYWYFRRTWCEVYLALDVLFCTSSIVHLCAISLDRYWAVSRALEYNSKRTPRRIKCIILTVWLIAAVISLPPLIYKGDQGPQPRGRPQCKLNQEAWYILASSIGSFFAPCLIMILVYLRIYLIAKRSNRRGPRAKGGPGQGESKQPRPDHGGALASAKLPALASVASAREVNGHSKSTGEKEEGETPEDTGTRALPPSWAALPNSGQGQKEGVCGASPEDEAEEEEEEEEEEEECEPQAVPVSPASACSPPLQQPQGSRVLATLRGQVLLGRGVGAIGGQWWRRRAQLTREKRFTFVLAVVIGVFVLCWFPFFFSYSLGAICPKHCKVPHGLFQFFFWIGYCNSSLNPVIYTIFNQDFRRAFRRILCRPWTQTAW
Sequence of D1 (P21728 whole entry): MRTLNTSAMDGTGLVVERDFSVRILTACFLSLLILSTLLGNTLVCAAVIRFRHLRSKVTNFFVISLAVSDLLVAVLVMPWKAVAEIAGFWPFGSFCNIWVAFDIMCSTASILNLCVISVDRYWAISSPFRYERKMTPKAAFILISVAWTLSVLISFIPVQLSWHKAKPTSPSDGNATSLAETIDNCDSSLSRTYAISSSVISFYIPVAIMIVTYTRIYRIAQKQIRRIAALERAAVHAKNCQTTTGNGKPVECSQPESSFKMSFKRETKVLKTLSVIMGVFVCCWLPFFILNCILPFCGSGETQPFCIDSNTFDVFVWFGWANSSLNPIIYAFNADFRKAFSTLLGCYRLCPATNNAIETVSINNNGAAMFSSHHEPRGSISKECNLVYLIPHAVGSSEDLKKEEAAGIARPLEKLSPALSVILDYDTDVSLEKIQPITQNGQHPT

CN1C(=O)c2ccccc2[S@+]([O-])c2ccc(C(=O)NCCc3cccs3)cc21 [Compound 55, 10-Methyl-11-oxo-N-(2-(thiophen-2-yl)ethyl)-10,11-dihydrodibenzo[b,f][1,4]thiazepine-8-carboxamide 5-(S)-oxide]
Inhibition (%) 5-HT3 [1]: 8.5% | Inhibition (%) 5-HT7 [2]: 53.3% | Inhibition (%) 5-HT1A [3]: 8.2% | AC50 [4]: 12.9 µM | Ki [5]: 0.1 µM | D3/D2 binding Ki ratio ([5]; ratio of D3 (Example 5) to D2 (Example 3) binding assay): 29.0 | Inhibition (%) BZP Rat Brain Site [6]: 0.5% | Inhibition (%) GABAA [7]: 10.6% | Inhibition (%) Alpha2B [8]: 31.2% | Inhibition (%) Alpha1D [9]: −22.6% | Inhibition (%) D1 [10]: −6.8% | Block of sumanirole-induced hypothermia response ([11]; 10 mg/kg): completely blocked | Block of sumanirole-induced hypothermia response ([11]; 3.2 and 10 mg/kg): significantly and dose-dependently block the sumanirole-induced hypothermia response
